From US8933070B2, “Methods of targeting PTEN mutant diseases and compositions therefor” (University Health Network, priority 2010, dated 2015)
Where two headings read alike, the source gives them in different places.

Tests used:
Syk = Syk (Homo sapiens, UniProt P43405); assay: Kinase selectivity assay (CEREP, HTRF); assay type: biochemical; details: read-out: % Inhibition at 10 μM Concentration
Protocol: (§1) The inhibitory activity of selected compounds was evaluated against a panel of 45 different kinase enzymes by CEREP, France. The assays were performed using standard HTRF assay methods as documented by CEREP against the human orthologues of Abl kinase, Akt1/PKBa, AMPKa, BMX kinase (Etk), Brk, CaMK2a, CaMK4, CDC2/CDK1 (cycB), CHK1, CHK2, c-Met kinase, CSK, EphB4 kinase, ERK1, ERK2 (P42mapk), FGFR2 kinase, FGFR4 kinase, FLT-1 kinase (VEGFR1), FLT-3 kinase, Fyn kinase, IGF1R kinase, IRK (InsR), JNK 2, KDR kinase (VEGFR2), Lck kinase, Lyn kinase, MAPKAPK2, MEK1/MAP2K1, p38a kinase, p38d kinase, p38g kinase, PDGFRb kinase, PDK1, PKA, PKCa, PKCb1, PKCb2, PKCg, Ret kinase, ROCK2, RSK2, Src kinase, Syk, and TRKA. The % Inhibition was determined by the formula; % Inhibition=100×(1−(experimental value−background value)/(high activity control−background value)).

[1] = system: MCF-7 luminal breast cancer cell line; assay: Cell growth inhibition, Sulforhodamine B (SRB) assay; assay type: cell-based; details: Homo sapiens, MCF7, 120 h, read-out: Cell Line GI50 Range MCF-7
Protocol: (§2) Aliquots (20 μl) from each concentration were overlaid to 80 μl of the pre-seeded cells in the 96-plates to make final concentrations of 10 nM to 50 μM. The cells were cultured for 5 days before the Sulforhodamine B (SRB) assay was performed to determine the compound's cell growth inhibition activity.
(§3) Sulforhodamine B (Sigma, Canada) is a water-soluble dye that binds to the basic amino acids of cellular proteins. Thus, colorimetric measurement of the bound dye provides an estimate of the total protein mass that is related to the cell number. The cells are fixed in situ by gently aspirating off the culture media and adding 50 μl ice cold 10% Trichloroacetic Acid (TCA) per well and incubated at 4° C. for 30-60 min. The plates are washed with water five times and allowed to air dry for 5 min. Addition of 50 μl 0.4% (w/v) SRB solution in 1% (v/v) acetic acid to each well and incubatation for […] at RT completes the staining reaction. Following staining, plates are washed four times with 1% acetic acid to remove unbound dye and then allowed to air dry for 5 min. […] Absorbance is read at 570 nm.
(§4) The percentage (%) of relative growth inhibition was calculated by comparing to DMSO-treated only cells (100%). GI50's were determined for compounds with cytotoxic activity. The GI50 was calculated using GraphPad PRISM software (GraphPad Software, Inc., USA).

[2] = system: human mammary epithelial primary cells (HMEC); assay: as above; assay type: cell-based; details: 120 h, read-out: Cell Line GI50 Range HMEC
Protocol: as §2, §3, §4

Aurora B = target: T1, Aurora B (Homo sapiens, UniProt Q96GD4); assay: Aurora B inhibition assay (Z-Lyte); assay type: biochemical; details: read-out: IC50 Ranges Aurura B
T1 construct: purchased Invitrogen PV3970
Protocol: Aurora B inhibition was determined using the Z-Lyte assay kit from Invitrogen. […] The % inhibition values were determined according to the manufacturer's directions and IC50 values were obtained using a non-linear 4 point logistic curve fit (XLfit4, IDBS).

[3] = system: MDA-MB-468 basal breast cancer cell line; assay: Cell growth inhibition, Sulforhodamine B (SRB) assay; assay type: cell-based; details: Homo sapiens, MDA-MB-468, 120 h, read-out: Cell Line GI50 Range MDA-MB-468
Protocol: Breast cancer and normal cells were seeded at various concentrations, ranging from 1500 to 4000 per 80 μl according to cell growth rate, into 96-well plates 24 hours before compound overlay. Each 10 mM stock solution in 100% DMSO of the compounds was diluted with Opti-MEM I Reduced-Serum Medium (Invitrogen, Canada) to make concentration ranges from 50 nM to 250 μM. 20 μl from each concentration was added to the cells to make the final concentration range from 10 nM to 50 μM. The cells were cultured at 37° C. for 5 days before the Sulforhodamine B (SRB) assay was performed to assess cell survival. SRB is a water-soluble dye that binds to the basic amino acids of cellular proteins. Thus, colorimetric measurement of the bound dye provides an estimate of the total protein mass and is related to cell number. The cells were fixed in situ by gently aspirating off the culture media and adding 50 μl ice-cold 10% Tri-chloroacetic Acid (TCA) per well and incubation at 4° C. for 30-60 min. The plates were washed with tap water five times and allowed to air dry for 5 min. 50 μl of 0.4% (w/v) SRB solution in 1% (v/v) acetic acid was added per well and incubated for 30 mM at RT for staining. Following staining, plates were washed four times with 1% acetic acid to remove any unbound dye and then allowed to air dry for 5 min. The stain was solubilized with 100 μl of 10 mM Tris pH 10.5 per well. Absorbances were read at 570 nm. The cell survival percentage at each compound concentration was calculated over the cell DMSO control, which was growing in the presence of 0.1% DMSO (0.5% in the case of 50 μM compounds). Cell viability GI50 values were calculated using GraphPad PRISM software (GraphPad Software, Inc.).

Aurora A = target: T2, Aurora A (Homo sapiens, UniProt O14965); assay: Aurora A inhibition assay (Z-Lyte); assay type: biochemical
T2 construct: purchased Invitrogen PV3612
T2 sequence (O14965 1-403): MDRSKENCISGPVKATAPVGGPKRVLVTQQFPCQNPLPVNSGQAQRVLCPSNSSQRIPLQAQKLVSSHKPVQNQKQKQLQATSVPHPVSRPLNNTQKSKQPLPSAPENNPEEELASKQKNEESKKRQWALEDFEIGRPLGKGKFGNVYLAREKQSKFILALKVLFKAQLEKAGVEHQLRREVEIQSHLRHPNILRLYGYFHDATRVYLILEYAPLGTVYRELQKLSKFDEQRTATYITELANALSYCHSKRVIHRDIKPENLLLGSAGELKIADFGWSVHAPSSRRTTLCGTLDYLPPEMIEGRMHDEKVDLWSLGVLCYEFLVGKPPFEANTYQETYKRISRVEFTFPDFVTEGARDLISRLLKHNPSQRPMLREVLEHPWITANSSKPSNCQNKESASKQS
Protocol: Aurora A inhibition was determined using the Z-Lyte assay kit from Invitrogen. The assay was performed using the recommended manufacturer's instructions with 20 nM ATP and 12 nM Aurora A (Invitrogen cat #PV3612). The % inhibition values were determined according to the manufacturer's directions and IC50 values were obtained using a non-linear 4 point logistic curve fit (XLfit4, IDBS)

JNK 2 = JNK 2 (Homo sapiens, UniProt P45984); assay: Kinase selectivity assay (CEREP, HTRF); assay type: biochemical; details: read-out: % Inhibition at 10 μM Concentration
Protocol: as §1

EphB4 = EphB4 (Homo sapiens, UniProt P54760); assay: Kinase selectivity assay (CEREP, HTRF); assay type: biochemical; details: read-out: % Inhibition at 10 μM Concentration
Protocol: as §1

ERK1 = ERK1 (Homo sapiens, UniProt P27361); assay: Kinase selectivity assay (CEREP, HTRF); assay type: biochemical; details: read-out: % Inhibition at 10 μM Concentration
Protocol: as §1

Brk = Brk (Homo sapiens, UniProt Q13882); assay: Kinase selectivity assay (CEREP, HTRF); assay type: biochemical; details: read-out: % Inhibition at 10 μM Concentration
Protocol: as §1

CHK2 = CHK2 (Homo sapiens, UniProt O96017); assay: Kinase selectivity assay (CEREP, HTRF); assay type: biochemical; details: read-out: % Inhibition at 10 μM Concentration
Protocol: as §1

PKA = PKA (Homo sapiens, UniProt P17612); assay: Kinase selectivity assay (CEREP, HTRF); assay type: biochemical; details: read-out: % Inhibition at 10 μM Concentration
Protocol: as §1

MEK1/MAP2K1 = MEK1/MAP2K1 (Homo sapiens, UniProt Q02750); assay: Kinase selectivity assay (CEREP, HTRF); assay type: biochemical; details: read-out: % Inhibition at 10 μM Concentration
Protocol: as §1

MAPKAPK2 = MAPKAPK2 (Homo sapiens, UniProt P49137); assay: Kinase selectivity assay (CEREP, HTRF); assay type: biochemical; details: read-out: % Inhibition at 10 μM Concentration
Protocol: as §1

Src = Src (Homo sapiens, UniProt P12931); assay: Kinase selectivity assay (CEREP, HTRF); assay type: biochemical; details: read-out: % Inhibition at 10 μM Concentration
Protocol: as §1

Lyn = Lyn (Homo sapiens, UniProt P07948); assay: Kinase selectivity assay (CEREP, HTRF); assay type: biochemical; details: read-out: % Inhibition at 10 μM Concentration
Protocol: as §1

TRKA = TRKA (Homo sapiens, UniProt P04629); assay: Kinase selectivity assay (CEREP, HTRF); assay type: biochemical; details: read-out: % Inhibition at 10 μM Concentration
Protocol: as §1

BMX (Etk) = BMX (Etk) (Homo sapiens, UniProt P51813); assay: Kinase selectivity assay (CEREP, HTRF); assay type: biochemical; details: read-out: % Inhibition at 10 μM Concentration
Protocol: as §1

Chain of BMX (Etk) (P51813 whole entry): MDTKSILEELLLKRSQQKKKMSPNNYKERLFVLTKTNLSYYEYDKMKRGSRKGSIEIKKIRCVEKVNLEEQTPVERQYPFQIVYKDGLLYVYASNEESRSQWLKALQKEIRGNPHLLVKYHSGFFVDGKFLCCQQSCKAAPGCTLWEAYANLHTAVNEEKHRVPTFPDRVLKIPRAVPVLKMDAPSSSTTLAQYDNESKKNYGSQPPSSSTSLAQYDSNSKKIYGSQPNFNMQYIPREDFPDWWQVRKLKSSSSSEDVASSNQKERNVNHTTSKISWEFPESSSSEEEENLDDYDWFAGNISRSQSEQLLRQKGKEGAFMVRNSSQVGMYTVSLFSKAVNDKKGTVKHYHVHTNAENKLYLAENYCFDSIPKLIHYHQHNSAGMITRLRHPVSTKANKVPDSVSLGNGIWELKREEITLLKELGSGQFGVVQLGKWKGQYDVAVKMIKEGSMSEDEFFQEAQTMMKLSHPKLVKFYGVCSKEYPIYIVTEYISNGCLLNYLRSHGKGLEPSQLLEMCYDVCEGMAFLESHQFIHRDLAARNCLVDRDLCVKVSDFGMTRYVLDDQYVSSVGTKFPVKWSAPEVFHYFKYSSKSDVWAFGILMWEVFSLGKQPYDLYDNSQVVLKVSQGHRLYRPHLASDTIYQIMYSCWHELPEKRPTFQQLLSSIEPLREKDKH
T1 sequence (Q96GD4 whole entry): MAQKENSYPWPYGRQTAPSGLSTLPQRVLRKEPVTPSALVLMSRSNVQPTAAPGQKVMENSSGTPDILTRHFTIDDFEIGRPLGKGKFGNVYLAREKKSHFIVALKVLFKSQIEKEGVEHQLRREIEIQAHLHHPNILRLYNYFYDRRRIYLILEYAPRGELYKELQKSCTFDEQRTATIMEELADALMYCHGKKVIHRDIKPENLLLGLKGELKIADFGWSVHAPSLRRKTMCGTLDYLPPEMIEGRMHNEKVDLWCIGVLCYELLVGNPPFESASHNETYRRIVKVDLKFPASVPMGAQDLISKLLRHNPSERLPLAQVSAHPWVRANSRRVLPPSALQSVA
Chain of EphB4 (P54760 16-987): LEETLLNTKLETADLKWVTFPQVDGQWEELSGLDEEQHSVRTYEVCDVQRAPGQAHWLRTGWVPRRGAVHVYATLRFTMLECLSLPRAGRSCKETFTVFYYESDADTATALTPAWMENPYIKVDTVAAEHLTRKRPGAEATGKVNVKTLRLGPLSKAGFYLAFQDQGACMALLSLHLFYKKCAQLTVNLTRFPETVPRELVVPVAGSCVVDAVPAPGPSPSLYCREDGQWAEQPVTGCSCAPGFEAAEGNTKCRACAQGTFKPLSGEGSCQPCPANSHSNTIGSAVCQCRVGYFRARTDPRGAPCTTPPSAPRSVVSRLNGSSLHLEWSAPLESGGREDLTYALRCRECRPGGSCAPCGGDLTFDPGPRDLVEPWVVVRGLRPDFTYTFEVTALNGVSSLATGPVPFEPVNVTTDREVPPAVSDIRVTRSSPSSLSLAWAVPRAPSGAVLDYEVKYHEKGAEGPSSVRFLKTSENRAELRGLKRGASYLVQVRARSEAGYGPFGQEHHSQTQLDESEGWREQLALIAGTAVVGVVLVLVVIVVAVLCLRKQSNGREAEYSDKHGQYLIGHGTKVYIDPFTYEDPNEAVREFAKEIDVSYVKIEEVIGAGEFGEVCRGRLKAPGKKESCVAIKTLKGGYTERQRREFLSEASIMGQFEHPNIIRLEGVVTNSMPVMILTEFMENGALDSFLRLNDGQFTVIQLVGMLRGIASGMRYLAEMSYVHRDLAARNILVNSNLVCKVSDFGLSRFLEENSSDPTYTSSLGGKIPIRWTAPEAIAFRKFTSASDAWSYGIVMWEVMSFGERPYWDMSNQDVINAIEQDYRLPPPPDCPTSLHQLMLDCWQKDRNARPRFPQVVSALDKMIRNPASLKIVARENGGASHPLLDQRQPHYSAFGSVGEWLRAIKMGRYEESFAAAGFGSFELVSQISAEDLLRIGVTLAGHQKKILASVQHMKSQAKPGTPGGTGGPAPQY
Chain of CHK2 (O96017 whole entry): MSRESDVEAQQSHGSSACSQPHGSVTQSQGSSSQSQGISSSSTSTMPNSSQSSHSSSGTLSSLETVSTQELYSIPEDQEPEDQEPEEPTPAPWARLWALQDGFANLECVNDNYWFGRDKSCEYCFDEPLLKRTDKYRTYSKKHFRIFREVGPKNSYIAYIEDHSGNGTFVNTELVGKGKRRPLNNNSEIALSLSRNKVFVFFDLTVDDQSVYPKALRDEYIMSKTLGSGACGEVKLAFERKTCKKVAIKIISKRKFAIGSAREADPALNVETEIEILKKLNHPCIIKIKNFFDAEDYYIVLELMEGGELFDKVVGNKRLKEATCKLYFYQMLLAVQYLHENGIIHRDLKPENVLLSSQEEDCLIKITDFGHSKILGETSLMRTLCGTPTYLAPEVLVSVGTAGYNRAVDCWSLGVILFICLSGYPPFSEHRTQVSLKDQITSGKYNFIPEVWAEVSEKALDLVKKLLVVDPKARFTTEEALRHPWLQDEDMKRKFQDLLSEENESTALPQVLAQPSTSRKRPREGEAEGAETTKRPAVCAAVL
Chain of Lyn (P07948 whole entry): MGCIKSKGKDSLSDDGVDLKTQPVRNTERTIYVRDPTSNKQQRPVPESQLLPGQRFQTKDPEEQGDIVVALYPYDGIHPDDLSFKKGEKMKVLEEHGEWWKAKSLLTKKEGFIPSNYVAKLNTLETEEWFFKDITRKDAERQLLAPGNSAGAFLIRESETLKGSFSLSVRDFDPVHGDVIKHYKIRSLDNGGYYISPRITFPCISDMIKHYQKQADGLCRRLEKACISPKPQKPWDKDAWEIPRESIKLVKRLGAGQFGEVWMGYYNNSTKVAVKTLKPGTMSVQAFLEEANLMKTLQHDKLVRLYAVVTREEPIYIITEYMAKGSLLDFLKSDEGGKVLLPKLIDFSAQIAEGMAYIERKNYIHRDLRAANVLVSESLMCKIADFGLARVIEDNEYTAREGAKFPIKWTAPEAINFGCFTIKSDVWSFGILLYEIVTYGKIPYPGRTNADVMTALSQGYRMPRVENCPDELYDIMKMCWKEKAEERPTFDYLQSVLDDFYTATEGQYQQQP
Chain of JNK 2 (P45984 whole entry): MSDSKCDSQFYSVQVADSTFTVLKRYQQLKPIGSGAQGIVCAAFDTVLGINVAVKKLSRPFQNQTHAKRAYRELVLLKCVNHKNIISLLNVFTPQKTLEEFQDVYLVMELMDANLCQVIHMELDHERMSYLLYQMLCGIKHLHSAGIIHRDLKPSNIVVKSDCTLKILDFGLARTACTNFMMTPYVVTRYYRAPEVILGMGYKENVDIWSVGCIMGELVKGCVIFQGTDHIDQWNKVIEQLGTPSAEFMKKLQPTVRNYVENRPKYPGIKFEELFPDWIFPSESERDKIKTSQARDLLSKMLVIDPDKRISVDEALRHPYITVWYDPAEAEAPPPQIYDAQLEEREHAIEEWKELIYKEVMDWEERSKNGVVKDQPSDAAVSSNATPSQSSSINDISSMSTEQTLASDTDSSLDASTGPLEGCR
Chain of Src (P12931 whole entry): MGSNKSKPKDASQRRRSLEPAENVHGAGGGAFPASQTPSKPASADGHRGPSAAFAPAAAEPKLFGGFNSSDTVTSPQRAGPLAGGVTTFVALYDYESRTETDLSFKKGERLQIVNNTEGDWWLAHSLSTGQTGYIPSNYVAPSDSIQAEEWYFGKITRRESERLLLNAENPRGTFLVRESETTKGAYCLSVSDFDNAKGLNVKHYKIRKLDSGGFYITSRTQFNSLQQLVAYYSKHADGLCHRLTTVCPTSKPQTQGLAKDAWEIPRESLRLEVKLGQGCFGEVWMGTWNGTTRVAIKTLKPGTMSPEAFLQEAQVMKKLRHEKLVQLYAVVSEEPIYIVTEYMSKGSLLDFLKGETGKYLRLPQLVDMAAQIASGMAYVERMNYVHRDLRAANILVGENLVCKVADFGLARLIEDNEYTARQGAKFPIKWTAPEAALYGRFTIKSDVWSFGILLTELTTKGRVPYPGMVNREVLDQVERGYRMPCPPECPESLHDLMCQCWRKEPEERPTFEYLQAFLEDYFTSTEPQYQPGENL
Chain of ERK1 (P27361 whole entry): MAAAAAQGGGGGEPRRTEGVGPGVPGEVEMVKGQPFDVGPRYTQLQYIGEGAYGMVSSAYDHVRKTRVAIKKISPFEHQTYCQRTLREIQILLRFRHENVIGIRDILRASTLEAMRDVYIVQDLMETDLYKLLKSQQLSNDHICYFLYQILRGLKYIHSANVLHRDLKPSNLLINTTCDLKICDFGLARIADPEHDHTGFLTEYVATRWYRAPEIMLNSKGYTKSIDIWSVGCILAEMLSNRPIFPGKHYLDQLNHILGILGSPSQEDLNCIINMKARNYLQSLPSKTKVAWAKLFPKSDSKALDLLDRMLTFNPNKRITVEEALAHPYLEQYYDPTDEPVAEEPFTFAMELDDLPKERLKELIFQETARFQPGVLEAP
Chain of MEK1/MAP2K1 (Q02750 whole entry): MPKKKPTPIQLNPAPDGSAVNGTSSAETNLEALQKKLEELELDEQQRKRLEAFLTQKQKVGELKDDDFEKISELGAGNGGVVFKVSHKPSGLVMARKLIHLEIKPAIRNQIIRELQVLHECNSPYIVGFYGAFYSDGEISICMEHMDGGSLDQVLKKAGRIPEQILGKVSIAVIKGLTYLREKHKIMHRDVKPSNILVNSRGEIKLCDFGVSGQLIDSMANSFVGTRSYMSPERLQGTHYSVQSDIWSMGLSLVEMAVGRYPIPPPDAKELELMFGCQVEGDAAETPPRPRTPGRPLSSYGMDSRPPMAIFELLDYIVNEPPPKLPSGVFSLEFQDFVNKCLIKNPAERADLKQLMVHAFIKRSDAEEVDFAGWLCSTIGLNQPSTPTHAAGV

| Structure (SMILES) | inhibition at 10 µM (Syk) [%] | GI50 [1] [µM] | GI50 [2] [µM] | IC50 (Aurora B) [µM] | GI50 [3] [µM] | inhibition at 10 µM (Aurora A; dose of 10 μM, read-out: Aurora A relative inhibition percentage) [%] | inhibition at 10 µM (JNK 2) [%] | inhibition at 10 µM (EphB4) [%] | inhibition at 10 µM (ERK1) [%] | inhibition at 10 µM (Brk) [%] | inhibition at 10 µM (CHK2) [%] | inhibition at 10 µM (PKA) [%] | inhibition at 10 µM (MEK1/MAP2K1) [%] | inhibition at 10 µM (MAPKAPK2) [%] | inhibition at 10 µM (Src) [%] | inhibition at 10 µM (Lyn) [%] | inhibition at 10 µM (TRKA) [%] | inhibition at 10 µM (BMX (Etk)) [%] | inhibition at 10 µM (Syk; Syk, 10 μM) [%] | IC50 (Aurora A; read-out: IC50 Ranges Aurora A) [µM] |
| --- | --- | --- | --- | --- | --- | --- | --- | --- | --- | --- | --- | --- | --- | --- | --- | --- | --- | --- | --- | --- |
| COc1ccc2c(c1)[C@@]1(C[C@@H]1c1ccc3c(-c4ccc(N5CCN(C)CC5)nc4)n[nH]c3c1)C(=O)N2 (racemic) [Compound 2] | -1 | < 5 | 20 to 50 | < 5 | < 5 | < 50 | – | – | – | – | – | – | – | – | – | – | – | – | – | – |
| CN(C)Cc1ccc(/C=C/c2n[nH]c3cc([C@H]4C[C@@]45C(=O)Nc4ccccc45)ccc23)cc1 (racemic) [Compound 35] | – | < 5 | 5 to 20 | – | < 5 | – | 5 | 65 | 1 | 53 | -3 | -7 | -2 | 2 | 51 | 86 | 101 | 39 | – | – |
| COc1ccc2c(c1)/C(=C\c1ccc3c(/C=C/c4ccc(N5CCN(C)CC5)nc4)n[nH]c3c1)C(=O)N2 [Compound 3] | – | – | – | < 5 | – | – | 15 | -1 | 2 | -2 | -4 | -5 | -3 | 6 | 26 | -2 | 43 | 0 | -1 | < 5 |
